Assay results as given in patent US20020064847A1, “NOVEL SECONDARY ALCOHOL DEHYDROGENASE, PROCESS FOR PREPARING SAID ENZYME, AND PROCESS FOR PREPARING ALCOHOLS AND KETONES USING SAID ENZYME” (priority 1996, published 2002).
Entries after “also recorded” stand apart in the source; their conditions may differ. Read-outs that look alike come from different tables or passages of the source.

Legend:
[1] = tested on: secondary alcohol dehydrogenase; experiment: Substrate specificity, oxidation reaction; assay type: biochemical, Geotrichum candidum IFO 4601; conditions: coenzyme NAD+, (S)-1,3-butanediol-oxidizing activity = 100
Description: (§1) In the present invention, secondary alcohol dehydrogenase activity was determined by allowing the enzyme to react in the reaction mixture containing potassium phosphate buffer (pH 8.0, 50 μmol), 2.5 μmol NAD^+, and 50μmol (S)-1,3-butanediol at 30° C. and measuring an increase of absorbance at 340 nm resulting from generation of NADH. One unit was defined as the amount of enzyme catalyzing generation of 1μmol of NADH per minute.
(§2) The secondary alcohol dehydrogenase was reacted with various alcohols and aldehydes. Its oxidation and reduction activities are shown in Table 1 as relative activities to (S)-1,3-butanediol-oxidizing activity and 4-hydroxy-2-butanone-reducing activity that are taken as 100.

[2] = tested on: secondary alcohol dehydrogenase; experiment: Behavior of the secondary alcohol dehydrogenase to inhibitors (residual activity); assay type: biochemical, Geotrichum candidum IFO 4601; conditions: for Residual activity: 30° C. for 10 minutes
Description: as §1
The secondary alcohol dehydrogenase was treated with various reagents at 30° C. for 10 minutes.

[3] = target: primary alcohol dehydrogenase (SADH 1) (Saccharomyces cerevisiae, UniProt P00330); conditions: SADH 1 from Saccharomyces cerevisiae; cited from earlier work
primary alcohol dehydrogenase (SADH 1), sequence (P00330 whole entry): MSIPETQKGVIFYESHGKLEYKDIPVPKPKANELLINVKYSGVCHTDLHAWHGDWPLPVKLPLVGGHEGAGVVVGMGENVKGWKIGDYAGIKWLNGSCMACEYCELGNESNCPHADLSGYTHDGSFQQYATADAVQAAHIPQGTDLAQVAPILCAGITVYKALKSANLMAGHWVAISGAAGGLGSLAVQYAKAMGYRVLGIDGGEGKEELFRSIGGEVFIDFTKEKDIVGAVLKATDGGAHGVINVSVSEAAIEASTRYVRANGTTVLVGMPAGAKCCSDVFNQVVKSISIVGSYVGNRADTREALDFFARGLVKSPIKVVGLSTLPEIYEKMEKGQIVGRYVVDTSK

[4] = tested on: secondary alcohol dehydrogenase; experiment: Enzyme kinetic analysis; assay type: biochemical, Geotrichum candidum IFO 4601
Description: as §1
The reaction rate constants of the purified secondary alcohol dehydrogenase to the following substrates were measured.

[5] = tested on: secondary alcohol dehydrogenase; experiment: Substrate specificity, oxidation reaction; assay type: biochemical, Geotrichum candidum IFO 4601; conditions: substrate 50 mM, coenzyme NADP+, (S)-1,3-butanediol-oxidizing activity = 100
[6] = tested on: secondary alcohol dehydrogenase; experiment: Substrate specificity, reduction reaction; assay type: biochemical, Geotrichum candidum IFO 4601; conditions: 4-hydroxy-2-butanone-reducing activity = 100
Description: The secondary alcohol dehydrogenase was examined for its activity of oxidation of (S)-1,3-butanediol and that of reduction of 4-hydroxy-2-butanone [which was measured under the same conditions as those used for measuring activity of oxidation of (S)-1,3-butanediol except for using NADH (0.4 μmol) instead of NAD^+] at different pHs using potassium-phosphate buffer (KPB), Tris-HCl buffer and Britten-Robinson buffer by measuring the decrease of absorbance at 340 nm accompanied with reduction of the amount of NADH. The activity is shown in FIGS. 3 and 4 as relative activity with taking the maximal activity as 100. The optimum pH in the reaction was 8.0-9.0 in the case of the oxidation of (S)-1,3-butanediol (FIG. 3) and 7.0 in the case of the reduction of 4-hydroxy-2-butanone (FIG. 4).
as §2

[7] = substrate 100 mM, coenzyme NADH

C[C@@H](O)CO [(R)-1,2-propanediol]
Relative activity ([1]; substrate 50 mM): 10.4%

CCCCCC[C@H](C)O [(S)-2-octanol]
Relative activity ([1]; substrate 5 mM): 187%

OCC(O)CO [glycerol]
Relative activity ([1]; substrate 50 mM): 0%

[Cl-].[Cl-].[Zn+2] [zinc chloride]
Inhibition of the enzyme (in words) [2]: markedly inhibited
Residual activity ([2]; inhibitor 10 mM): 0.9%

CC(C)O [2-propanol]
Relative activity ([1]; substrate 100 mM): 96.8%

(RS)-2-butanol
Relative activity ([1]; substrate 100 mM): 85.9%
Activity relative to ethanol [3]: approximately 1%

C[C@@H](O)c1ccccc1 [(R)-1-phenylethanol]
Relative activity ([1]; substrate 50 mM): 19.2%

COC(=O)C[C@@H](C)O [methyl (R)-3-hydroxybutyrate]
Relative activity ([1]; substrate 50 mM): 22.1%

[Cl][Co][Cl] [cobalt chloride]
Residual activity ([2]; inhibitor 1.0 mM): 81.0%

OC1CCCCC1 [cyclohexanol]
Relative activity ([1]; substrate 20 mM): 90.4%

CCO [ethanol]
Relative activity ([1]; substrate 100 mM): 10.7%

C[C@H](O)c1ccccc1 [(S)-1-phenylethanol]
Relative activity ([1]; substrate 50 mM): 267%

O=S(=O)([O-])[O-].[Cu+2] [copper sulfate]
Residual activity ([2]; inhibitor 1.0 mM): 71.5%

CCCCCC[C@@H](C)O [(R)-2-octanol]
Relative activity ([1]; substrate 5 mM): 13.3%

1-propanol
Relative activity ([1]; substrate 100 mM): 15.5%

O=C(O)c1cc[c]([Hg][Cl])cc1 [p-chloromercuribenzoic acid]
Inhibition of the enzyme (in words) [2]: perfectly inhibited
Residual activity ([2]; inhibitor 0.05 mM): 0.0%
Inhibition of the enzyme (in words) ([2]; listed as parachloromercuribenzoic acid): markedly inhibited

C=CCO [allyl alcohol]
Relative activity ([1]; substrate 100 mM): 18.7%

O[C@H](CS)[C@H](O)CS (racemic) [dithiothreitol]
Residual activity ([2]; inhibitor 1.0 mM): 42.9%

O=C(O)CN(CCN(CC(=O)O)CC(=O)O)CC(=O)O [ethylenediaminetetraacetic acid]
Inhibition of the enzyme (in words) [2]: inhibited
Residual activity ([2]; inhibitor 1.0 mM): 63.5%
Residual activity ([2]; inhibitor 10 mM): 9.8%

C[C@H](O)CCO [(S)-1,3-butanediol]
Relative activity ([1]; substrate 50 mM): 100%
Km ([4]; purified enzyme): 41.4 mM
Vmax ([4]; purified enzyme): 36.7 U/mg of protein
Relative activity [5]: 2.4%

CCC(C)=O [2-butanone]
Relative activity [6, 7]: 20.2%

CC(=O)c1ccccc1 [acetophenone]
Relative activity ([6]; substrate 20 mM, coenzyme NADH): 122%

C[C@H](O)CO [(S)-1,2-propanediol]
Relative activity ([1]; substrate 50 mM): 23.8%

CO [methanol]
Relative activity ([1]; substrate 100 mM): 60.8%

C[C@@H](O)CCO [(R)-1,3-butanediol]
E value ([4]; (S)- versus (R)-1,3-butanediol): 33.0
Vmax ([4]; purified enzyme): 4.43 U/mg of protein
Relative activity [5]: 8.8%

(S)-2-butanol
Relative activity ([1]; substrate 50 mM): 112%

OCCS [2-mercaptoethanol]
Inhibition of the enzyme (in words) [2]: markedly inhibited
Residual activity ([2]; inhibitor 0.01 mM): 6.8%
Inhibition of the enzyme (in words) ([2]; listed as 2-mercaptethanol): inhibited

NC(=O)CI [iodoacetamide]
Inhibition of the enzyme (in words) [2]: perfectly inhibited; also recorded: markedly inhibited
Residual activity ([2]; inhibitor 1.0 mM): 2.4%

1-butanol
Relative activity ([1]; substrate 100 mM): 12.9%

(R)-2-butanol
Relative activity ([1]; substrate 50 mM): 60.0%

[Cl][Hg][Cl] [mercuric chloride]
Inhibition of the enzyme (in words) [2]: markedly inhibited
Residual activity ([2]; inhibitor 1.0 mM): 0.0%
Inhibition of the enzyme (in words) ([2]; listed as mercury chloride): inhibited

COC(=O)C[C@H](C)O [methyl (S)-3-hydroxybutyrate]
Relative activity ([1]; substrate 50 mM): 138%

CCOC(=O)CC(C)=O [ethyl acetoacetate]
Relative activity [6, 7]: 96.8%

CC(C)=O [acetone]
Relative activity [6, 7]: 164%

CC(=O)CCO [4-hydroxy-2-butanone]
Relative activity ([6]; substrate 20 mM, coenzyme NADH): 100%
Relative activity ([6]; substrate 20 mM, coenzyme NADPH): 0%
